Experimental data from ChEMBL document CHEMBL1201862, “PubChem BioAssay data set” (2004).
Active and inactive are the calls of the source.

Key:
[1] = anti-trypanosomal activity in BESM host cells – imaging, CA-I/72 strain, bovine embryo skeletal muscle, dry powder, dose response (AID 651885); type: functional, cell-based
[2] = T. cruzi growth inhibition in host cells, dose response, cell-based, plate reader, dry powder, set 2 (AID 652275); type: functional
[3] = Luminescence Cell-Based Dose Retest to Confirm Inhibitors of Cancer Stem Cells. [Related pubchem assays (depositor defined):AID2717, AID2721]; type: functional; details: Homo sapiens
[4] = molecular target: T1, Replicative DNA helicase DnaB (Mycobacterium tuberculosis, UniProt P9WMR3); assay: DnaB intein splicing inhibitors, dose response, biochemical, cell-free fluorescence (AID 449749); type: functional
T1 sequence (P9WMR3 whole entry): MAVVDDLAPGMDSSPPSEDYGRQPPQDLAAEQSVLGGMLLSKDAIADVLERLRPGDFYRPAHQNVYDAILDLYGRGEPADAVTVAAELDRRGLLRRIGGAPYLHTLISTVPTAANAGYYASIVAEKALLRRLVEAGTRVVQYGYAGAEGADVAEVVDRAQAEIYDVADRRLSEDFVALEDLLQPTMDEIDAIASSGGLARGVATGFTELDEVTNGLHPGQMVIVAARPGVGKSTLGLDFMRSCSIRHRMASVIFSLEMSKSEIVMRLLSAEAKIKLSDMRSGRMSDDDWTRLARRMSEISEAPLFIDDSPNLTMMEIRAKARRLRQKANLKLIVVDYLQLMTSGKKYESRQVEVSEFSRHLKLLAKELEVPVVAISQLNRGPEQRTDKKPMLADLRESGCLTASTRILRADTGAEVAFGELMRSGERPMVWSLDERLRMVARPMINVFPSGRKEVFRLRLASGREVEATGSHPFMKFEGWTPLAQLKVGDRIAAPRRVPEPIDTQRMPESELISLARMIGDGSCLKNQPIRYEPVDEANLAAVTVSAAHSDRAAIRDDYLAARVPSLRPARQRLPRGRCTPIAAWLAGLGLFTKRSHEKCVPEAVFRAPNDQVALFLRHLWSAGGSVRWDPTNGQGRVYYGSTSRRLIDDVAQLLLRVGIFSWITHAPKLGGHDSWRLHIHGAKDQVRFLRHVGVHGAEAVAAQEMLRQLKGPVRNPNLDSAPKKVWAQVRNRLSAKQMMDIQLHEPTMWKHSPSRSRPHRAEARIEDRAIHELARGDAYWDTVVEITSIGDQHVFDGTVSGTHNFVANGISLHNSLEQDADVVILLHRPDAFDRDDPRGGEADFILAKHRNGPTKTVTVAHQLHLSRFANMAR

Protein RecA = molecular target: T2, Protein RecA (Mycobacterium tuberculosis, UniProt P9WHJ3); assay: Fluorescence Cell-Free Homogeneous Dose Retest to Identify Inhibitors of RecA-Intein Splicing Activity. [Related pubchem assays (depositor defined):AID2097, AID2223, AID489010, AID492950]; type: functional
T2 sequence (P9WHJ3 whole entry): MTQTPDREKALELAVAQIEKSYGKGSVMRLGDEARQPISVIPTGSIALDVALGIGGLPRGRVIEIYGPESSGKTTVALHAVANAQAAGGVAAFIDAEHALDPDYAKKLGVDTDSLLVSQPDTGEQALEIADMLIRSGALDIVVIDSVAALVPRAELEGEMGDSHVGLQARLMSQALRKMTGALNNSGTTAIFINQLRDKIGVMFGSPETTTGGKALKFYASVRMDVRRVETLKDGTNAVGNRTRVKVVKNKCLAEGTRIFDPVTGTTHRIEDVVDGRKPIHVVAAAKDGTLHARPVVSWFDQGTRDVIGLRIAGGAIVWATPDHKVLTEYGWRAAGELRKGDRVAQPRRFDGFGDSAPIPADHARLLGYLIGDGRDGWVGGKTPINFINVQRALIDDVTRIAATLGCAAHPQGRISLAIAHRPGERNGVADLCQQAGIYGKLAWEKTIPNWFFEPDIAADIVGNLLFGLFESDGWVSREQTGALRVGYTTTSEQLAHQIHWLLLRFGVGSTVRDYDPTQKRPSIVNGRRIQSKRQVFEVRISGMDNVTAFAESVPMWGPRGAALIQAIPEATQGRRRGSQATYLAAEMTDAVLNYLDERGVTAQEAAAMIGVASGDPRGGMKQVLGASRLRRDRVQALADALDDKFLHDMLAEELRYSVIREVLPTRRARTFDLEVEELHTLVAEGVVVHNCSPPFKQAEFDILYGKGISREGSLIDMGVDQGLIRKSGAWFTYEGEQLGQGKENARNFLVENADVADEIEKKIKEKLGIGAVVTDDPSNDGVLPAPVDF

[5] = blockers of HIV-1 envelope-mediated cell-cell fusion – cherry-pick, dose response (AID 652057); type: functional, cell-based
[6] = viability loss in CEM21 cells – cell-based, CellTiter-Glo luminescence, cherry-picked, cytotoxicity control for viral fusion inhibitor project, dose response (AID 652042); type: functional;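 note: potency for signal decrease meaning cytotoxicity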
[7] = off-target signal loss in HeLa-CEM21 co-culture – HeLa F-luc CTL cells, cherry-picked, counter-screen for HIV-1 Env fusion inhibitor project, dose response (AID 652040); type: functional, cell-based;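 note: potency for signal decrease marking cytotoxic or nonspecific inhibition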
[8] = HIV-1 AD8 envelope cell-cell fusion blockers – cherry-pick, dose response (AID 652062); type: functional, cell-based;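 note: luciferase signal from cell-cell fusion driven by HIV-1 clade B AD8 Env; potency is for inhibitors of fusion seen as a drop in luminescence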
[9] = HGIII-sPLA2 enzyme inhibition potency – biochemical, QFRET, IC50, dose response (AID 743457);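 note: green fluorescence rise as the enzyme cleaves BODIPY PC-A2 in liposomes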

CC(C)N1C[C@H](C)[C@@H](CN(C)CC2CCOCC2)Oc2c(NC(=O)c3ccncc3)cccc2C1=O
IC50 [1]: 5.83 µM (inconclusive)

CC(C)N1C[C@@H](CN(C)Cc2ccc(Cl)cc2)Oc2c(NC(=O)c3ncn[nH]3)cccc2C1=O
AC50 [2]: 5.99 µM (active)

COc1ccccc1/C=C/C1(C(=O)NC2CCCC2)CC(=O)N1c1ccc(F)cc1 (stereo not given)
AC50 [3]: 6.36 µM (active) | AC50 [4]: 3.57 µM (active) | EC50 (Protein RecA): 2.82 µM (active) | AC50 [5]: 3.35 µM (active) | AC50 [6]: 12.7 µM (active) | AC50 [7]: 5.48 µM (active) | AC50 [8]: 25.2 µM (active)

Cc1ccc(C)c(NC(S)=NNC(=O)c2csc(C)c2C)c1
IC50 [9]: > 122 µM (inactive)
